One data set concerns M9 ENL1 cell line. Briefly: Anti-leukemic activity, Annexin V/7-AAD flow cytometry. Type of data set: cell-based. The procedure: (§1) The newly synthesized triazole derivatives of melampomagnolide B were screened for anti-leukemic activity against M9 ENL1 and primary AML cell lines; the latter were obtained with informed consent from human patients. Evaluations were performed after 24 h of drug exposure using flow cytometric analysis by labeling with Annexin V and 7-aminoactinomycin D (7-AAD) to delineate apoptotic cell populations. In all experiments PTL was included as a reference control.

In data set [1] the test system is primary AML cell line AML1. Described as above. Type of data set: cell-based, human. The settings on record: 24 h of drug exposure, read-out: AML#1 (EC50). As for the experimental part:
as §1

Data set [2] concerns primary AML cell line AML2. The description is as above. Type of data set: cell-based, human. Particulars: 24 h of drug exposure, read-out: AML#2 (EC50). The procedure: as §1
The nature of the next data set: Water solubility. Type of data set: physicochemical. Particulars: fumarate salt vs free base.
[3] abbreviates: 24 h of drug exposure, read-out: M9ENL1 (EC50).
[4] abbreviates: M9-ENL1, 24 h, 24 h of drug exposure, read-out: M9ENL1 (EC50).

From patent US10428082B2, “Triazole derivatives of melampomagnolide B and methods of use thereof” (BioVentures, LLC, priority 2016, dated 2019) come the findings set out here.

Where two headings read alike, the source gives them in different places.

For the molecule `C=C1C(=O)O[C@H]2[C@H]1CC/C(Cn1cc(CCCCl)nn1)=C\CC[C@@]1(C)O[C@@H]21` [JVM 4-31], the EC50 in the data set on M9 ENL1 cell line (setting [3]) worked out at 3800 nM.
As for `C=C1C(=O)O[C@H]2[C@H]1CC/C(Cn1cc(COC(=O)c3ccccc3)nn1)=C\CC[C@@]1(C)O[C@@H]21` [JVM 3-76], the EC50 with M9 ENL1 cell line (setting [3]) is 11000 nM.
As to `C=C1C(=O)O[C@H]2[C@H]1CC/C(Cn1cc(-c3ccccn3)nn1)=C\CC[C@@]1(C)O[C@@H]21` [JVM 4-47, (1aR,7aS,10aS,10bS,E)-1a-Methyl-8-methylene-5-((4-(pyridin-2-yl)-1H-1,2,3-triazol-1-yl)methyl)-2,3,6,7,7a,8,10a,10b-octahydrooxireno[2′,3′:9,10]cyclodeca[1,2-b]furan-9(1aH)-one], the EC50 in the data set on M9 ENL1 cell line (setting [4]) was 3200 nM; in data set [1] (Homo sapiens, AML1, 24 h), 7900 nM.
Take `C#Cc1cccc(-c2cn(C/C3=C/CC[C@@]4(C)O[C@H]4[C@H]4OC(=O)C(=C)[C@@H]4CC3)nn2)c1` [JVM 4-41, (1aR,7aS,10aS,10bS,E)-5-((4-(3-Ethynylphenyl)-1H-1,2,3-triazol-1-yl)methyl)-1a-methyl-8-methylene-2,3,6,7,7a,8,10a,10b-octahydrooxireno[2′,3′:9,10]cyclodeca[1,2-b]furan-9(1aH)-one]: the EC50 came out at 200 nM in the data set on M9 ENL1 cell line (setting [4]) and 200 nM with M9 ENL1 cell line (M9-ENL1, text value in nM, read-out: EC50 against the M9 ENL cell line). In addition, the “fold more potent than parthenolide (PTL)” value in the data set with M9 ENL1 cell line (M9 ENL1 cells) is 26 fold.
In the case of `C=C1C(=O)O[C@H]2[C@H]1CC/C(Cn1cc(-c3cc(F)cc(F)c3)nn1)=C\CC[C@@]1(C)O[C@@H]21` [JVM 4-48, (1aR,7aS,10aS,10bS,E)-5-((4-(3,5-Difluorophenyl)-1H-1,2,3-triazol-1-yl)methyl)-1a-methyl-8-methylene-2,3,6,7,7a,8,10a,10b-oetahydrooxireno[2′,3′:9,10]cyclodeca[1,2-b]furan-9(1aH)-one], the EC50 with M9 ENL1 cell line (setting [4]) worked out at 1500 nM; in data set [1] (Homo sapiens, AML1, 24 h), 2400 nM.
Take `C/C1=C\CC[C@@]2(C)O[C@@H]2[C@H]2OC(=O)[C@H](CN(C)C)[C@@H]2CC1` [DMAPT, reference compound]: the results for the concentration giving a half-maximal response (EC50) (in the data set with M9 ENL1 cell line (setting [3]); in data set [1]; in data set [2]) were 6000 nM, 14700 nM and 11300 nM, respectively.
For `C=C1C(=O)O[C@@H]2[C@H]3O[C@]3(C)CC/C=C(\CO)CC[C@@H]12` [MMB, Melampomagnolide B] the same measures were 16000 nM, 20500 nM and 24300 nM.
For `C=C1C(=O)O[C@H]2[C@H]1CC/C(Cn1cc(-c3ccc(F)c(C)c3)nn1)=C\CC[C@@]1(C)O[C@@H]21` [JVM 4-27, (1aR,7aS,10aS,10bS,E)-5-((4-(4-Fluoro-3-methylphenyl)-1H-1,2,3-triazol-1-yl)methyl)-1a-methyl-8-methylene-2,3,6,7,7a,8,10a,10b-octahydrooxireno[2′,3′:9,10]cyclodeca[1,2-b]furan-9(1aH)-one], the EC50 was 1200 nM in the data set on M9 ENL1 cell line (setting [4]); 1300 nM in data set [1] (Homo sapiens, AML1, 24 h); 1200 nM in data set [2] (Homo sapiens, 24 h).
As for `C=C1C(=O)O[C@H]2[C@H]1CC/C(Cn1cc(CCCC)nn1)=C\CC[C@@]1(C)O[C@@H]21` [JVM 4-20], the EC50 in the data set with M9 ENL1 cell line (setting [3]) stood at 4300 nM.
Consider `C=C1C(=O)O[C@H]2[C@H]1CC/C(Cn1cc(CO)nn1)=C\CC[C@@]1(C)O[C@@H]21` [JVM 3-75], for which the EC50 with M9 ENL1 cell line (setting [3]) is 38000 nM.
With `CN(C)CC1C(=O)O[C@H]2[C@H]1CC/C(Cn1cc(-c3cc(C(F)(F)F)cc(C(F)(F)F)c3)nn1)=C\CC[C@@]1(C)O[C@@H]21` (stereo partly drawn) [JVM 4-29B], the EC50 turned out to be 1900 nM in the data set on M9 ENL1 cell line (setting [4]); 1100 nM in data set [1] (Homo sapiens, AML1, 24 h); 2300 nM in data set [2] (Homo sapiens, 24 h).
In the case of `CN(C)CC1C(=O)O[C@H]2[C@H]1CC/C(Cn1cc(-c3cc(C(F)(F)F)cc(C(F)(F)F)c3)nn1)=C\CC[C@@]1(C)O[C@@H]21` (stereo partly drawn) [JVM 4-29C], in the data set “Water solubility”, the “water solubility compared with free base form” value is on record as “more water soluble than the free base form”. Besides, the values for the EC50 (with M9 ENL1 cell line (setting [3]); in data set [1]; in data set [2]) were 1700 nM, 1000 nM and 2900 nM, respectively.
